Laboratory results taken from patent US20260317367A1, “SALTS INCLUDING CRYSTALLINE SALTS OF 25-HYDROXY-CHOLEST-5-EN-3-SULFATE AND METHODS FOR PREPARING SAME” (Durect Corporation, priority 2022, published 2026).
Entries after “also recorded” stand apart in the source; their conditions may differ. Counter-ions that a name gives are not always drawn. Like-named read-outs stand apart in the source and are kept apart here.

How the values were obtained:
Assay type in all cases: physicochemical
[1] = X-ray powder diffraction before and after DVS (form stability); details: 5% to 95% RH
Method: XRPD patterns were collected with a PANalytical X'Pert PRO MPD or a PANalytical Empyrean diffractometer using an incident beam of Cu radiation produced using an Optix long, fine-focus source. An elliptically graded multilayer mirror was used to focus Cu Kα X-rays through the specimen and onto the detector. Prior to the analysis, a silicon specimen (NIST SRM 640f) was analyzed to verify the observed position of the Si 111 peak is consistent with the NIST-certified position. A specimen of the sample was sandwiched between 3-μm-thick films and analyzed in transmission geometry. A beam-stop, short antiscatter extension, and antiscatter knife edge were used to minimize the background generated by air. Soller slits for the incident and diffracted beams were used to minimize broadening and asymmetry from axial divergence. Diffraction patterns were collected using a scanning position-sensitive detector (X'Celerator) located 240 mm from the specimen and Data Collector software v. 5.5. All images have the instrument labeled as X'Pert PRO MPD regardless of the instrument used.
XRPD patterns were collected with a PANalytical X'Pert PRO MPD diffractometer using an incident beam of Cu Kα radiation produced using a long, fine-focus source and a nickel filter. The diffractometer was configured using the symmetric Bragg-Brentano geometry. Prior to the analysis, a silicon specimen (NIST SRM 640f) was analyzed to verify the observed position of the Si 111 peak is consistent with the NIST-certified position. A specimen of the sample was prepared as a thin, circular layer centered on a silicon zero-background substrate. Antiscatter slits (SS) were used to minimize the background generated by air. Soller slits for the incident and diffracted beams were used to minimize broadening from axial divergence. Diffraction patterns were collected using a scanning position-sensitive detector (X'Celerator) located 240 mm from the sample and Data Collector software v. 5.5
(§1) Dynamic vapor sorption data was collected on a Surface Measurement System DVS Intrinsic instrument. The samples were not dried prior to analysis. Sorption and desorption data were collected over a range from 5% to 95% RH in 10% RH increments under a nitrogen purge. The equilibrium criteria used for the analyses were 0.001 dm/dt weight change in 5 minutes with a minimum step time of 30 minutes and maximum equilibration time of 180 minutes with a 3 minute data logging interval. Data were not corrected for the initial moisture content of the sample.

[2] = Dynamic vapor sorption (DVS), hygroscopicity; details: for Water uptake (weight gain) up to about 95% relative humidity: 5% to about 95% RH
Description: Dynamic vapor sorption (DVS) measures the uptake of a vapor (typically water) by a sample when exposed to a changing relative humidity. The loss of water can also be measured as relative humidity is decreased. Hygroscopic materials tend to absorb water more readily than non-hygroscopic. In some cases, hydrates absorb water to create higher-order hydrates (e.g., a monohydrate converting to a dihydrate when exposed to increasingly humid conditions). In some salts of the disclosure, moisture is retained upon exposure in a DVS experiment and little or no weight loss is observed upon heating from room temperature. In such experiments, the hygroscopic nature of the salt under study may indicate the formation of a hydrate from an anhydrate. […] Exemplary methods for collecting DVS data are set forth in Example 26.
as §1

[3] = Differential scanning calorimetry (DSC), thermal decomposition / endothermic transition; details: for Decomposition temperature (DSC): 10° C./min; for First significant endothermic transition (DSC): indicative of thermal degradation or solid-state transformation
Method: (§2) Differential scanning calorimetry (DSC) is a thermoanalytical technique where the difference in the amount of heat required to increase the temperature of a sample and reference is measured as a function of temperature. Using this technique, phase transitions of a sample can be measured such as melting point. Decomposition can also be observed by DSC as can dehydration events. In the context of DSC measurements, there is also variability and the term “about” means ±1° C., and such variability is to be understood whether a DSC measurement is prefaced by “about” or not unless specified otherwise. Exemplary methods for collecting DSC data are set forth in Example 21. Thermogravimetric analysis, sometimes referred to as, thermal gravimetric analysis (TGA) is a thermal method of thermal analysis where the mass of a sample is measured as a function of time as the sample temperature changes. For example, when samples disclosed herein are heated and a loss in mass is measured prior to decomposition, this is likely indicative of the loss of water from the sample and may indicate that the sample being heated is a hydrate. Exemplary methods for collecting TGA are set forth in Example 23.
DSC was performed using a Mettler-Toledo DSC3+ differential scanning calorimeter. A tau lag adjustment is performed with indium, tin, and zinc. The temperature and enthalpy are adjusted with octane, phenyl salicylate, indium, tin and zinc. The adjustment is then verified with octane, phenyl salicylate, indium, tin, and zinc. The sample was placed into a hermetically sealed aluminum DSC pan, and the weight was accurately recorded. The pan was then inserted into the DSC cell. A weighed aluminum pan configured as the sample pan was placed on the reference side of the cell. The pan lid was pierced prior to sample analysis. Samples were analyzed from 30° C. to 350° C. or 30° C. to 250° C., both at 10° C./min.

[4] = Angle of repose of 25HC3S salts; details: for Flow Property per USP<1174> Powder Flow: classification by angle of repose
Method: Angle of repose is measured as follows. Powder is poured from a funnel onto a flat surface until a cone of powder is created. The angle of repose is calculated according to the following equation: […]
Table C1, from USP<1174> Powder Flow, describes the powder flow properties correlating to the angles of repose.
The lower the angle of repose, the more flowable is a material. Powder with an angle of repose between 25° to 30° will show excellent flow through a hopper, feed frame, die table and die bore smoothly. From 41° to greater than 66°, you may experience powder flow difficulties like rat-holing or bridging within the hopper.
The angle of repose was determined by pouring approximately 2 grams of a 25HC3S salt through a 7 mm inner diameter plastic tube into the center of a 21.14 mm diameter rubber O-ring, resulting in the formation of a powder cone of fixed diameter. The height of the cone was estimated with calipers.

[5] = Thermogravimetric analysis (TGA), weight loss
Method: as §2
TG analysis was performed using a Mettler-Toledo TGA/DSC3 analyzer. Temperature and enthalpy adjustments were performed using indium, tin, and zinc, and then verified with indium. The balance was verified with calcium oxalate. The sample was placed in an open aluminum pan. The pan was hermetically sealed, the lid pierced, then inserted into the TG furnace. A weighed aluminum pan configured as the sample pan was placed on the reference platform. The furnace was heated under nitrogen. Each sample was heated from ambient temperature to 350° C. at 10° C./min. Although thermograms are plotted by reference temperature (x-axis), results are reported according to sample temperatures.

[6] = Solubility of the lysine salt in solvents for NMR analysis
Description: Use of TFA as solvent cleaves the sulfate group at the C3 position. ^1H-NMR analysis (CF3COOD) indicated a 1/1 ratio of lysine to cholesterol, as well as ~0.2 eq. triethylamine and some iPrOH.

[7] = listed as crystalline 25HC3S potassium
[8] = DVS, listed as crystalline 25HC3S potassium
[9] = listed as crystalline 25HC3S hydroxyethylpyrrolidinium
[10] = listed as 25HC3S hydroxyethylpyrrolidinium
[11] = listed as crystalline 25HC3S tromethammonium
[12] = DVS, listed as crystalline 25HC3S tromethammonium
[13] = listed as 25HC3S tromethammonium

SMILES: CC(CCCC(C)(C)O)C1CCC2C3CC=C4CC(OS(=O)(=O)O)CCC4(C)C3CCC12C (stereo not drawn) [Salt #1]
- Change of x-ray powder diffraction pattern after DVS (in words) [1, 7]: not an appreciable change
- Water uptake (weight gain) up to about 95% relative humidity [2, 8]: 2%
- Hygroscopicity (in words) [2, 8]: limited hygroscopicity
- Decomposition temperature (DSC) [3, 7]: 198 °C
- First significant endothermic transition (DSC) ([3]; listed as potassium): ~198 °C
- Flow Property per USP<1174> Powder Flow ([4]; listed as 25HC3S potassium): Fair - aid not needed
- Angle of Repose ([4]; listed as 25HC3S potassium): 37.7 degrees
- Angle of Repose, Rounded Whole Number ([4]; listed as 25HC3S potassium): 38 degrees
- Weight loss by TGA, 100° C. to 180° C. ([5]; 100° C. to 180° C.): 1.7%
- Weight loss by TGA to about 100° C. [5]: about 0.9%

SMILES: CC(CCCC(C)(C)O)C1CCC2C3CC=C4CC(OS(=O)(=O)O)CCC4(C)C3CCC12C (stereo not drawn) [Salt #4]
- Change of x-ray powder diffraction pattern after DVS (in words) ([1]; listed as crystalline 25HC3S choline): does not appreciably change
- Weight loss on return to 5% relative humidity ([2]; DVS desorption, 95% to 5% RH): 0.5%
- Reversibility of water uptake (in words) ([2]; DVS, RH reduced from 95% to 5%, listed as crystalline 25HC3S choline): no hysteresis; also recorded: reversibly lose all that water
- Hygroscopicity (in words) ([2]; DVS, listed as 25HC3S choline): surprisingly low hygroscopicity
- Hygroscopicity (in words) ([2]; DVS, listed as crystalline 25HC3S choline): not appreciably hygroscopic; also recorded: less hygroscopic
- First significant endothermic transition (DSC) ([3]; listed as choline): ~198 °C
- Angle of Repose ([4]; listed as 25HC3S choline): 34.9 degrees
- Angle of Repose, Rounded Whole Number ([4]; listed as 25HC3S choline): 35 degrees
- Weight loss by TGA up to 198° C. (in words) ([5]; up to 198° C.): negligible weight loss

SMILES: CC(CCCC(C)(C)O)C1CCC2C3CC=C4CC(OS(=O)(=O)O)CCC4(C)C3CCC12C (stereo not drawn) [Salt #6]
- Change of x-ray powder diffraction pattern after DVS (in words) [1, 9]: different than before
- Decomposition temperature (DSC) [3, 9]: about 181 °C
- Flow Property per USP<1174> Powder Flow [4, 10]: Poor - must agitate,
- Angle of Repose [4, 10]: 53.8 degrees
- Angle of Repose, Rounded Whole Number [4, 10]: 54 degrees
- Weight loss by TGA up to 181° C. ([5]; up to 181° C.): about 0.1%

SMILES: CC(CCCC(C)(C)O)C1CCC2C3CC=C4CC(OS(=O)(=O)O)CCC4(C)C3CCC12C (stereo not drawn) [Salt #8]
- Change of x-ray powder diffraction pattern after DVS (in words) [1, 11]: some potential differences
- Water uptake (weight gain) up to about 95% relative humidity [2, 12]: over 20%
- Hygroscopicity (in words) [2, 12]: hygroscopic
- Decomposition temperature (DSC) [3, 11]: about 184 °C
- Flow Property per USP<1174> Powder Flow [4, 13]: Fair - aid not needed
- Angle of Repose [4, 13]: 40.2 degrees
- Angle of Repose, Rounded Whole Number [4, 13]: 40 degrees
- Weight loss by TGA up to about 80° C. ([5]; up to about 80° C.): ~0.3%

SMILES: C[C@H](CCCC(C)(C)O)[C@H]1CC[C@H]2[C@@H]3CC=C4C[C@@H](OS(=O)(=O)O)CC[C@]4(C)[C@H]3CC[C@]12C [Salt #14]
- Relative humidity above which the salt is hygroscopic ([2]; DVS): above 75 % relative humidity
- Solubility in other solvents (in words) ([6]; any other common organic solvents or acidic or basic aqueous solutions): No solubility was detected
- Solubility in trifluoroacetic acid (in words) ([6]; trifluoroacetic acid): only adequately soluble in trifluoroacetic acid
- Decomposition temperature (DSC) [3]: about 186 °C
- First significant endothermic transition (DSC) [3]: ~186 °C
- Angle of Repose [4]: 25.7 degrees
- Angle of Repose, Rounded Whole Number [4]: 26 degrees
- Weight loss by TGA, 100° C. to […] C. ([5]; 100° C. to […] C., partly decomposition): about 8.8%
- Weight loss by TGA to about 100° C. [5]: about 1.5%
